Consider 1 compound from US20060045910A1, “Preserved fusogenic vesicles” (priority 2004, published 2006).

This test concerns rat cardiomyocyte cells. In words: Uptake of ATP by rat cardiomyocyte cells (FIG. 5). The format is cell-based. The source says: While not wishing to be bound by any specific theory, it is currently believed that the dehydration of the vesicles that occurs during freeze-drying causes more ATP to enter the fusogenic vesicles. In this manner, the preserved and re-hydrated fusogenic vesicles may contain a higher concentration of ATP than their unpreserved counterparts.

On to `Nc1ncnc2c1ncn2[C@@H]1O[C@H](COP(=O)(O)OP(=O)(O)OP(=O)(O)O)[C@@H](O)[C@H]1O` [unencapsulated ATP, adenosine triphosphate], for which the “uptake of ATP by cells” value is given as “barely absorbed”.
